ChEMBL document CHEMBL4706653, “Ultra-short lipopeptides against gram-positive bacteria while alleviating antimicrobial resistance” (Eur J Med Chem, 2021)
Active and inactive are the calls of the source. No cut-off for these calls is given here. Residues, ends and D or L forms follow the SMILES beside them. *: point of attachment. Myristoyl = CCCCCCCCCCCCCC(=O)*; Lauroyl = CCCCCCCCCCCC(=O)*

What was measured:
Staphylococcus aureus [1] = test: Ratio of MIC for antimicrobial activity against Staphylococcus aureus ATCC 25923 in presence of 2.5% serum to MIC for antimicrobial activity against Staphylococcus aureus ATCC 25923 in absence of serum; assay type: functional
[2] = Toxicity in BALB/c mouse assessed as inflammatory cell infiltration in kidney at 80 mg/kg, ip administered as single dose measured after 5 days; assay type: organism-based; settings: in vivo, 120 h, time 5 day
Staphylococcus aureus [3] = test: Antimicrobial activity against Staphylococcus aureus ATCC 25923 infected in neutropenia BALB/c mouse assessed as reduction in bacterial load in kidney at 10 mg/kg, ip administered staring from 2 hrs post infection and measured 8 hrs post-infected in presence of ciprofloxacin; assay type: functional, organism-based; settings: time 6.0 hrs

| SMILES | Ratio (Staphylococcus aureus [1]) | Activity [2] | Activity (Staphylococcus aureus [3]) |
| --- | --- | --- | --- |
| CCCCCCCCCCCC(=O)N[C@@H](CCCNC(=N)N)C(=O)N[C@@H](CCCNC(=N)N)C(=O)N[C@@H](Cc1c[nH]c2ccccc12)C(N)=O (Lauroyl-Arg-Arg-Trp-NH2) | 8 |  |  |
| CCCCCCCCCCCCCC(=O)N[C@@H](CCCNC(=N)N)C(=O)N[C@@H](Cc1c[nH]c2ccccc12)C(=O)N[C@@H](Cc1c[nH]c2ccccc12)C(N)=O (Myristoyl-Arg-Trp-Trp-NH2) |  | Toxic | Active |
